Measurements from patent US10035792B2, “Resorcinol derivative as HSP90 inhibitor” (priority 2015, dated 2018).
Where two headings read alike, the source gives them in different places.

What was measured:
[1] = molecular target: HSP90α (Homo sapiens (Human), UniProt P07900); assay: Fluorescence polarization (FP) HSP90-alpha target binding assay
Text: In the present invention, the method of fluorescence polarization (FP) was used to establish the screening platform for HSP90-alpha inhibitors. The principle based on is to calculate fluorescence polarization values in horizontal and vertical directions by detecting molecular weight changes before and after interaction of fluorescent labeled small molecules with other molecules, in use for correlation analysis. If binding equilibria between the fluorescent labeled small molecule and the macromolecule is established, it moves slowly when excited, and the fluorescence polarization values measured will increase. If the fluorescent labeled small molecule binding to the macromolecule is replaced with other ligands, its rotational or inversional speed in free state will become faster, the emitted light would be depolarized with respect to the exciting light plane, and thus the polarized light value measured will decrease, so as to calculate the polarization value of the sample (the unit of polarization value is mP).
The fluorescent labeled small molecule used in the present invention was VER-00051001 (synthesized by reference to the synthetic method described in JMC, 2008, 51, 196-218). The reaction was carried out in a 384-well black plate, using the reaction hydrophobic protein HFB buffer: 100 mM Tris.Cl pH 7.4, 20 mM KCl, 6 mM MgCl2, 5 μg/mL BSA, 25 nM full-length Hsp90U, 10 nM VER-51001. The volume of the reaction system was […], containing 5 nM GM-BODIPY (geldanamycin), 30 nM HSP90 and the test small molecular compound or DMSO (dimethyl sulfoxide), wherein the DMSO content was 2% o. Additional two group wells were established, wherein the wells only added with HFB buffer were used as blank controls, and the wells further added with 5 nM GM-BODIPY were used as negative controls. The reaction was carried out at 4° C. for 12-16 hours. The mP value was measured by Biotek microplate reader at 485 nm of excitation wavelength and 535 nm of emission wavelength. The inhibition rate was calculated using the following equation: (Compound-free mP−Compound mP)/(Compound-free mP−negative control mP)×100%

[2] = system: human lung cancer cell line A549; assay: Tumor cell growth inhibition, SRB staining, A549; type: cell-based; details: A549, 72 h
Experimental: The growth inhibition assay of tumor cells was detected by sulforhodamine B (SRB) staining method. The specific steps were as follows: inoculating human colon cancer cell line HCT116 and human lung cancer cell line A549 (purchased from American Type Culture Collection, ATCC) at the logarithmic growth phase into a 96-well micro culture plate at an appropriate concentration of 4000 cells/well, 100 μL for each well; after culturing overnight, adding with the compound at different concentrations (100, 10, 1, 0.1, 0.01 μM) to react for 72 h, wherein triplicate wells were set up for each concentration, and solvent control wells with the corresponding concentration and zero wells without cells were also set up. After the completion of the reaction, the culture medium was removed from the adherent cells, the later was added with 10% (w/v) trichloroacetic acid (100 μL/well) at 4° C. to fix for 1 h, and then washed five times with distilled water. After drying at room temperature, 100 μL of SRB solution (4 mg/mL, dissolved in 1% glacial acetic acid) was added into each well, followed by incubation and staining for 15 min at room temperature. The uncombined SRB was removed by washing five times with 1% glacial acetic acid. After drying at room temperature, 100 μL of 10 mM Tris solution was added into each well, and the optical density (OD) at 515 nm was measured by a […] microplate reader. The inhibition rate of the drug to tumor cell growth was calculated according to the following equation: Inhibition rate (%)=(OD of control well-OD of drug well)/OD of control well×100%. The experiment was repeated twice.

[3] = fluorescence polarization, read-out: Target binding ability HSP90α FP IC50

IC50 [1, 3] | EC50 [2] | Structure (SMILES) | IC50 [1]
20 to 100 nM | > 100 nM | CCNC(=O)c1noc(-c2cc(C(C)C)c(O)cc2O)c1-c1ccc2c(c1)CCN(C(=O)CN(C)C)C2 [Example 59, 5-(2,4-dihydroxyl-5-isopropylphenyl)-4-(2-(2-(dimethylamino)acetyl)-1,2,3,4-tetrahydroisoquinolin-6-yl)-N-ethylisoxazole-3-carboxamide] | 
< 20 nM | < 20 nM | CCNC(=O)c1onc(-c2cc(C(C)C)c(O)cc2O)c1-c1ccc2c(c1)CCN(CCO)C2 [Example 69] | 
< 20 nM | < 20 nM | CC(C)c1cc(-c2noc(C(=O)NCCO)c2-c2ccc3c(c2)CCN(C)C3)c(O)cc1O [Example 64, 3-(2,4-dihydroxyl-5-isopropylphenyl)-N-(2-hydroxylethyl)-4-(2-methyl-1,2,3,4-tetrahydroisoquinolin-6-yl)isoxazole-5-carboxamide] | 
< 20 nM | > 100 nM | CC(C)c1cc(-c2onc(C(=N)NC#N)c2-c2ccc3c(c2)CCN(C)C3)c(O)cc1O [Example 21, N-cyano-5-(2,4-dihydroxyl-5-isopropylphenyl)-4-(2-methyl-1,2,3,4-tetrahydroisoquinolin-6-yl)isoxazole-3-carboxamidine] | 
< 20 nM | 20 to 100 nM | CCNC(=O)c1noc(-c2cc(C(C)C)c(O)cc2O)c1-c1ccc2c(c1)CCN(CC)C2 [Example 49, 5-(2,4-dihydroxyl-5-isopropylphenyl)-N-ethyl-4-(2-ethyl-1,2,3,4-tetrahydroisoquinolin-6-yl)isoxazole-3-carboxamide] | 
< 20 nM | < 20 nM | CNC(=O)c1noc(-c2cc(C(C)C)c(O)cc2O)c1-c1ccc2c(c1)CCN(C)C2 [Example 36, 5-(2,4-dihydroxyl-5-isopropylphenyl)-N-methyl-4-(2-methyl-1,2,3,4-tetrahydroisoquinolin-6-yl)isoxazole-3-carboxamide] | 
20 to 100 nM | < 20 nM | CCNC(=O)c1noc(-c2cc(C(C)C)c(O)cc2O)c1-c1ccc2c(n1)CCN(C)C2 [Example 11, 5-(2,4-dihydroxyl-5-isopropylphenyl)-N-ethyl-4-(6-methyl-5,6,7,8-tetrahydro-1,6-naphthyridin-2-yl)isoxazole-3-carboxamide] | 
20 to 100 nM | 20 to 100 nM | CCNC(=O)c1noc(-c2cc(C(C)C)c(O)cc2O)c1-c1cc2c(s1)CCN(C)C2 [Example 9, 5-(2,4-dihydroxyl-5-isopropylphenyl)-N-ethyl-4-(5-methyl-4,5,6,7-tetrahydrothieno[3,2-c]pyridin-2-yl)isoxazole-3-carboxamide] | 
20 to 100 nM | 20 to 100 nM | COCCCNC(=O)c1noc(-c2cc(C(C)C)c(O)cc2O)c1-c1ccc2c(c1)CCN(C)C2 [Example 42, 5-(2,4-dihydroxyl-5-isopropylphenyl)-N-(3-methoxypropyl)-4-(2-methyl-1,2,3,4-tetrahydroisoquinolin-6-yl)isoxazole-3-carboxamide] | 
20 to 100 nM | 20 to 100 nM | CCCNC(=O)c1noc(-c2cc(C(C)C)c(O)cc2O)c1-c1ccc2c(c1)CCN(C)C2 [Example 37, 5-(2,4-dihydroxyl-5-isopropylphenyl)-N-propyl-4-(2-methyl-1,2,3,4-tetrahydroisoquinolin-6-yl)isoxazole-3-carboxamide] | 
< 20 nM | 20 to 100 nM | CCNC(=O)c1noc(-c2cc(C(C)C)c(O)cc2O)c1-c1ccc2c(c1)CCCN(C)C2 [Example 26, 5-(2,4-dihydroxyl-5-isopropylphenyl)-N-ethyl-4-(2-methyl-2,3,4,5-tetrahydro-1H-benzo[c]azepin-7-yl)isoxazole-3-carboxamide] | 
< 20 nM | 20 to 100 nM | CCNC(=O)c1noc(-c2cc(C(C)C)c(O)cc2O)c1-c1cc2c(s1)C(C)(C)NCC2 [Example 18, 5-(2,4-dihydroxyl-5-isopropylphenyl)-4-(7,7-dimethyl-4,5,6,7-tetrahydrothieno[2,3-c]pyridin-2-yl)-N-ethyl-isoxazole-3-carboxamide] | 
< 20 nM | 20 to 100 nM | CCNC(=O)c1noc(-c2cc(C3CC3)c(O)cc2O)c1-c1ccc2c(c1)CCN(C)C2 [Example 35, 5-(5-cyclopropyl-2,4-dihydroxyl-phenyl)-N-ethyl-4-(2-methyl-1,2,3,4-tetrahydroisoquinolin-6-yl)isoxazole-3-carboxamide] | 
< 20 nM | < 20 nM | CCNC(=O)c1onc(-c2cc(C(C)C)c(O)cc2O)c1-c1ccc2c(c1)CCNCC2 [Example 28, 3-(2,4-dihydroxyl-5-isopropylphenyl)-N-ethyl-4-(2,3,4,5-tetrahydro-1H-3-benzazepin-7-yl) isoxazole-5-carboxamide] | 

Structure (SMILES) | IC50 [1, 3] | EC50 [2] | IC50 [1]
CCNC(=O)c1noc(-c2cc(C(C)C)c(O)cc2O)c1-c1ccc2c(c1)C1CCC2N1CC(C)C (stereo not drawn) [Example 8, 5-(2,4-dihydroxyl-5-isopropylphenyl)-N-ethyl-4-(9-isobutyl-1,2,3,4-tetrahydro-1,4-epiminonaphth-6-yl)isoxazole-3-carboxamide] |  | < 20 nM | 20 to 100 nM
CCNC(=O)c1noc(-c2cc(C(C)C)c(O)cc2O)c1-c1ccc2c(c1)C1CCC2N1CC (stereo not drawn) [Example 6, 5-(2,4-dihydroxyl-5-isopropylphenyl)-N-ethyl-4-(9-ethyl-1,2,3,4-tetrahydro-1,4-epiminonaphth-6-yl)isoxazole-3-carboxamide] |  | < 20 nM | 20 to 100 nM
CCNC(=O)c1noc(-c2cc(C(C)C)c(O)cc2O)c1-c1ccc2c(c1)C1CCC2N1 (stereo not drawn) [Example 4, 5-(2,4-dihydroxyl-5-isopropylphenyl)-N-ethyl-4-(1,2,3,4-tetrahydro-1,4-epiminonaphth-6-yl)isoxazole-3-carboxamide] |  | 20 to 100 nM | 20 to 100 nM
CCNC(=O)c1noc(-c2cc(C(C)C)c(O)cc2O)c1-c1ccc2c(c1)C1CCC2N1C(C)C (stereo not drawn) [Example 7, 5-(2,4-dihydroxyl-5-isopropylphenyl)-N-ethyl-4-(9-isopropyl-1,2,3,4-tetrahydro-1,4-epiminonaphth-6-yl)isoxazole-3-carboxamide] |  | < 20 nM | 20 to 100 nM
